“Also recorded” adds a separate entry of the source. Counter-ions that a name gives are not always drawn. Values belong to the compound of their own block, whether it stands above or below them.
Tests used:
[1] = tested on: KPC-derived orthotopic tumor; settings: mouse, in vivo
Source text: This stringent PDAC tumor model mimics human PDAC for oncogene expression, growth characteristics, metastasis, histological features and development of a dysplastic stroma. […] Imaging intensity was quantified by IVIS Lumina Living Image software.

[2] = tested on: patient-derived PDAC xenograft XWR #187; settings: mouse, in vivo, 50 mg/kg
[3] = tested on: PDAC; settings: PDAC patients; cited from earlier work
[4] = tested on: KPC-derived orthotopic tumors; assay: Efficacy assessment in KPC-derived orthotopic model; settings: 40 mg/kg IV every 4 days
[5] = Maximum tolerated dose (NCI protocol); settings: male, BALB/c, mouse, in vivo; Example 1; healthy mice, IV, validated in six mice over 15 days
Experimental: . Two healthy male BALB/c mice were IV injected with a 50 mg/kg (C1 dose) equivalent of free or encapsulated irinotecan. This was followed by a dose escalation factor of 1.8 to obtain the Cn dose, which results in animal death within 24 h after the last administration. The second round of dose-seeking began with the Cn-1 dose and utilized a 1.15 escalation factor (n=2) to find the MTD, which is defined as the absence of mortality or morbidity. The MTD was validated by injecting six mice, which were followed for 15 days to determine the absence of morbidity, mortality, or >15% weight loss.
. Two healthy male BALB/c mice were IV injected with 50 mg/kg (C1 dose) free or encapsulated drug. We then used a dose escalation factor of 1.8 to determine the Cn dose where both animals (n=2) died within 24 hours. After treatment with free or encapsulated irinotecan. The second round of dose-seeking began with Cn-1 dose, and utilized a 1.15 escalation factor (n=2) to find the MTD, where there was no mortality or serious morbidity. The MTD was further validated by injecting […], and following them for 15 days to ascertain that there was no morbidity, mortality or […]. […].

[6] = human, in vivo; cited from earlier work
[7] = Liver and intestinal toxicity (H&E, cleaved caspase-3 IHC); settings: animals of efficacy study, 40 mg/kg every 4 days
[8] = Acute histological analysis after single IV dose (Example 2); settings: 60 mg/kg single IV, 24 hours; for kidney histology: hydrochloride trihydrate
[9] = tested on: BxPC-3 cells; assay: MTS cytotoxicity assay; assay type: cell-based; settings: BxPC3, incremental irinotecan concentrations, 24-72 hours
[10] = tested on: PANC-1 cells; assay: MTS cytotoxicity assay; assay type: cell-based; settings: PANC-1, incremental irinotecan concentrations, 24-72 hours
[11] = Bone marrow toxicity and differential white cell count; assay type: in vivo, mice; settings: 40 mg/kg IV x3, 2 days apart; listed as free drug, hydrochloride trihydrate
Experimental: Bone marrow toxicity was studied in a separate experiment, in which animals received three injections of a 40 mg/kg irinotecan dose equivalent, as described above. After sacrifice, sternal bone marrow was collected to evaluate myelotoxicity by H&E staining (FIG. 4D) (Iusuf et al. (2014) Mol. Cancer Ther. 13: 492-503).

- enhancement of silicasome uptake at orthotopic tumor site by co-administration [1]: 3-4 fold
- increase of NIR intensity at the tumor site [2]: 50%
Compound: N=C(N)NCCC[C@@H]1NC(=O)[C@@H](N)CSSC[C@@H](C(=O)O)NC(=O)[C@H](CC(=O)O)NC(=O)[C@@H]2CCCN2C(=O)CNC(=O)[C@H](CCCCN)NC(=O)[C@H](CC(=O)O)NC(=O)CNC1=O [iRGD]
- intratumoral particle abundance and traveling distance from blood vessels [1]: most effective strategy to enhance silicasome uptake

Compound: FOLFIRINOX
- response rate [3]: 31.6%
- survival [3]: ~11 months

Compound: Nc1ccn([C@@H]2O[C@H](CO)[C@@H](O)C2(F)F)c(=O)n1 [GEM, gemcitabine]
- response rate [3]: 9.4%
- survival [3]: 6.8 months

Compound: CCc1c2c(nc3ccc(OC(=O)N4CCC(N5CCCCC5)CC4)cc13)-c1cc3c(c(=O)n1C2)COC(=O)[C@]3(O)CC [free irinotecan, Irinotecan hydrochloride trihydrate]
- effect on metastasis (ex vivo bioluminescence) [4]: failed to affect metastasis
- MTD at 15 days [5]: 60 mg/kg
- G.I.T. adverse effects (vomiting, diarrhea, nausea, anorexia) [6]: ~50 % of patients
- incidence of neutropenia [6]: ~60%
- liver histology (H&E) [7]: severe and extensive hepatocyte necrosis
- bone marrow toxicity (H&E histology) [8]: Severe bone marrow damage and apoptosis
- kidney histology ([8]; listed as Free irinotecan): nephrotoxicity
- kidney histology ([8]; listed as free IRIN): swelling and edema of Bowman's space
- cell killing (MTS) [9]: more effective in killing over 24 hours
- cell killing (MTS) [10]: more effective in killing over 24 hours
- peripheral blood neutrophil count [11]: significant decrease of the absolute neutrophil count; also recorded: peripheral blood neutropenia
